{"source": "PubChem BioAssay AID220", "about": "(DTP/NCI, 2004)", "tested_on": "CD8F1 mice, subcutaneous mammary adenocarcinoma, T/C%", "test": "NCI In Vivo Anticancer Drug Screen. Data for tumor model Mammary Adenocarcinoma CD8F1 (subcutaneous) in CD8F1", "details": "higher = larger tumour", "method_in_brief": "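Mice carrying transplanted tumors received test compound, and survival or tumor size was recorded. Each value is the treated-group measurement divided by the corresponding measurement in vehicle-dosed controls.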", "key": {"[1]": {"details": "endpoint: median tumor weight (est.), dose: 12.5 mg/kg/injection, schedule: Q07DX005 (ip), vehicle: saline with Tween-80"}, "[2]": {"details": "endpoint: median tumor weight (est.), dose: 25.0 mg/kg/injection, schedule: Q07DX005 (ip), vehicle: saline with Tween-80"}, "[3]": {"details": "endpoint: median tumor weight (est.), dose: 50.0 mg/kg/injection, schedule: Q07DX005 (ip), vehicle: saline with Tween-80"}, "[4]": {"details": "endpoint: median tumor weight (est.), dose: 100.0 mg/kg/injection, schedule: Q07DX005 (ip), vehicle: saline with Tween-80"}, "[5]": {"details": "endpoint: median tumor weight change, dose: 250.0 mg/kg/injection, schedule: Q01DX001 (ip), vehicle: saline with Tween-80"}, "[6]": {"details": "endpoint: median tumor weight change, dose: 500.0 mg/kg/injection, schedule: Q01DX001 (ip), vehicle: saline with Tween-80"}, "[7]": {"details": "endpoint: median tumor weight change, dose: 1000.0 mg/kg/injection, schedule: Q01DX001 (ip), vehicle: saline with Tween-80"}}, "note": "Several values for one entry are separate records, joined by “and”; a condition that tells them apart may be missing. Identical values can stand only once. Inconclusive results are not listed."}
{"smiles": "Cc1ccc(S(=O)(=O)NC(=O)C2C(=O)CC3(CCCCC3)CC2=O)cc1", "values": [{"measurement": "T/C", "setting": "endpoint: median tumor weight change, dose: 31.25 mg/kg/injection, schedule: Q01DX001 (ip), vehicle: Klucel (hydroxypropylcellulose) (HPC)", "value": "93 % of control"}, {"measurement": "T/C", "setting": "endpoint: median tumor weight change, dose: 62.5 mg/kg/injection, schedule: Q01DX001 (ip), vehicle: Klucel (hydroxypropylcellulose) (HPC)", "value": "101 % of control"}, {"measurement": "T/C", "setting": "endpoint: median tumor weight change, dose: 125.0 mg/kg/injection, schedule: Q01DX001 (ip), vehicle: Klucel (hydroxypropylcellulose) (HPC)", "value": "122 % of control"}]}
{"smiles": "Cn1c2nc(=O)n(-c3ccccc3)c(=O)c-2nc2c1CCCC2", "values": [{"measurement": "T/C", "setting": "[1]", "value": "90 % of control"}, {"measurement": "T/C", "setting": "[2]", "value": "108 % of control"}, {"measurement": "T/C", "setting": "[3]", "value": "119 % of control"}, {"measurement": "T/C", "setting": "[4]", "value": "100 % of control"}]}
{"smiles": "O=C1CN(CCN2CC(=O)N(CN3CCOCC3)C(=O)C2)CC(=O)N1CN1CCOCC1", "values": [{"measurement": "T/C", "setting": "endpoint: median tumor weight change, dose: 15.62 mg/kg/injection, schedule: Q01DX001 (ip), vehicle: water", "value": "53 % of control"}, {"measurement": "T/C", "setting": "endpoint: median tumor weight change, dose: 31.25 mg/kg/injection, schedule: Q01DX001 (ip), vehicle: water", "value": "64 % of control"}, {"measurement": "T/C", "setting": "endpoint: median tumor weight change, dose: 62.5 mg/kg/injection, schedule: Q01DX001 (ip), vehicle: water", "value": "96 % of control"}, {"measurement": "T/C", "setting": "endpoint: median tumor weight change, dose: 125.0 mg/kg/injection, schedule: Q01DX001 (ip), vehicle: water", "value": "40 % of control"}]}
{"smiles": "COC(=O)c1cc2cc(C)c(C)c(C)c2c2ccc(C)cc12", "values": [{"measurement": "T/C", "setting": "[4]", "value": "101 % of control"}]}
{"smiles": "Cc1ccc(NC(=O)Oc2ccc(Br)cc2Br)c([N+](=O)[O-])c1", "values": [{"measurement": "T/C", "setting": "[1]", "value": "121 % of control"}, {"measurement": "T/C", "setting": "[2]", "value": "93 % of control"}, {"measurement": "T/C", "setting": "[3]", "value": "115 % of control"}, {"measurement": "T/C", "setting": "[4]", "value": "77 % of control"}, {"measurement": "T/C", "setting": "endpoint: median tumor weight (est.), dose: 200.0 mg/kg/injection, schedule: Q07DX005 (ip), vehicle: saline with Tween-80", "value": "124 % of control"}, {"measurement": "T/C", "setting": "endpoint: median tumor weight (est.), dose: 400.0 mg/kg/injection, schedule: Q07DX005 (ip), vehicle: saline with Tween-80", "value": "98 % of control"}, {"measurement": "T/C", "setting": "[5]", "value": "52 % of control"}, {"measurement": "T/C", "setting": "[6]", "value": "88 % of control"}, {"measurement": "T/C", "setting": "[7]", "value": "50 % of control"}, {"measurement": "T/C", "setting": "endpoint: median tumor weight change, dose: 1800.0 mg/kg/injection, schedule: Q01DX001 (ip), vehicle: saline with Tween-80", "value": "74 % of control"}, {"measurement": "T/C", "setting": "endpoint: median tumor weight change, dose: 2000.0 mg/kg/injection, schedule: Q01DX001 (ip), vehicle: saline with Tween-80", "value": "59 % of control"}, {"measurement": "T/C", "setting": "endpoint: median tumor weight change, dose: 3600.0 mg/kg/injection, schedule: Q01DX001 (ip), vehicle: saline with Tween-80", "value": "44 % of control"}]}
{"smiles": "Nc1nc(-c2ccccc2)c(Br)c(=O)[nH]1", "values": [{"measurement": "T/C", "setting": "endpoint: median tumor weight change, dose: 125.0 mg/kg/injection, schedule: Q01DX001 (ip), vehicle: saline with Tween-80", "value": "115 % of control"}, {"measurement": "T/C", "setting": "[5]", "value": "96 % of control"}, {"measurement": "T/C", "setting": "[6]", "value": "93 % of control"}, {"measurement": "T/C", "setting": "[7]", "value": "98 % of control"}]}
{"smiles": "CC1CN=C(c2ccc(NC(=O)c3ccc(C(=O)Nc4ccc(C5=NCC(C)N5)cc4)cc3)cc2)N1", "note": "(stereo not drawn)", "values": [{"measurement": "T/C", "setting": "endpoint: median tumor weight (est.), dose: 50.0 mg/kg/injection, schedule: Q07DX005 (ip), vehicle: Klucel (hydroxypropylcellulose) (HPC)", "value": "51 % of control"}, {"measurement": "T/C", "setting": "endpoint: median tumor weight (est.), dose: 100.0 mg/kg/injection, schedule: Q07DX005 (ip), vehicle: Klucel (hydroxypropylcellulose) (HPC)", "value": "94 % of control"}, {"measurement": "T/C", "setting": "endpoint: median tumor weight (est.), dose: 200.0 mg/kg/injection, schedule: Q07DX005 (ip), vehicle: Klucel (hydroxypropylcellulose) (HPC)", "value": "36 % of control"}]}
{"smiles": "CC1=C(C)C(=O)O[C@@H]([C@](C)(O)[C@]2(O)CC[C@@]3(O)[C@@H]4C[C@H]5O[C@]56[C@@H](O)C=CC(=O)[C@]6(C)[C@H]4CC[C@]23C)C1", "values": [{"measurement": "T/C", "setting": "endpoint: median tumor weight change, dose: 18.75 mg/kg/injection, schedule: Q01DX001 (ip), vehicle: saline", "value": "104 % of control"}, {"measurement": "T/C", "setting": "endpoint: median tumor weight change, dose: 37.5 mg/kg/injection, schedule: Q01DX001 (ip), vehicle: saline", "value": "63 % of control"}, {"measurement": "T/C", "setting": "endpoint: median tumor weight change, dose: 75.0 mg/kg/injection, schedule: Q01DX001 (ip), vehicle: saline", "value": "61 % of control"}]}
{"smiles": "C[CH2][Sn]([CH2]C)([O]S(C)(=O)=O)[O]S(C)(=O)=O", "values": [{"measurement": "T/C", "setting": "endpoint: median tumor weight change, dose: 3.9 mg/kg/injection, schedule: Q01DX001 (ip), vehicle: saline", "value": "88 % of control"}, {"measurement": "T/C", "setting": "endpoint: median tumor weight change, dose: 7.81 mg/kg/injection, schedule: Q01DX001 (ip), vehicle: saline", "value": "60 % of control"}, {"measurement": "T/C", "setting": "endpoint: median tumor weight change, dose: 15.62 mg/kg/injection, schedule: Q01DX001 (ip), vehicle: saline", "value": "103 % of control"}]}
{"smiles": "CNc1n[n+](-c2ccccc2)no1", "values": [{"measurement": "T/C", "setting": "endpoint: mean tumor weight, dose: 3.12 mg/kg/injection, schedule: Q07DX006 (ip), vehicle: saline", "value": "90 % of control"}, {"measurement": "T/C", "setting": "endpoint: mean tumor weight, dose: 12.5 mg/kg/injection, schedule: Q07DX006 (ip), vehicle: saline", "value": "27 % of control"}, {"measurement": "T/C", "setting": "endpoint: mean tumor weight, dose: 25.0 mg/kg/injection, schedule: Q07DX006 (ip), vehicle: saline", "value": "81 % of control"}, {"measurement": "T/C", "setting": "endpoint: mean tumor weight, dose: 50.0 mg/kg/injection, schedule: Q07DX006 (ip), vehicle: saline", "value": "2 % of control"}, {"measurement": "T/C", "setting": "endpoint: median tumor weight (est.), dose: 3.12 mg/kg/injection, schedule: Q07DX005 (ip), vehicle: saline", "value": "157 % of control"}, {"measurement": "T/C", "setting": "endpoint: median tumor weight (est.), dose: 50.0 mg/kg/injection, schedule: Q07DX005 (ip), vehicle: saline", "value": "50 % of control and 60 % of control"}]}
